Laboratory results reported in PMC5507339, “Small-molecule inhibition of pyruvate phosphate dikinase targeting the nucleotide binding site” (PLoS ONE, 2017).
“Also recorded” adds a separate entry of the source.

What was measured:
[1] = molecular target: T1, PPDK from Flaveria trinervia (Flaveria trinervia, UniProt P22221); experiment: biochemical; settings: for IC50: 0.2 μM PPDK, inhibitor 0-200 μM, mean ± standard error; for Residual PPDK activity relative to DMSO-treated controls: inhibitor 100 μM
T1 construct: His10 (N); TEV cleavage site (N); made in house; host or cells: E. coli BL21 (DE3)
T1 sequence (P22221 80-953): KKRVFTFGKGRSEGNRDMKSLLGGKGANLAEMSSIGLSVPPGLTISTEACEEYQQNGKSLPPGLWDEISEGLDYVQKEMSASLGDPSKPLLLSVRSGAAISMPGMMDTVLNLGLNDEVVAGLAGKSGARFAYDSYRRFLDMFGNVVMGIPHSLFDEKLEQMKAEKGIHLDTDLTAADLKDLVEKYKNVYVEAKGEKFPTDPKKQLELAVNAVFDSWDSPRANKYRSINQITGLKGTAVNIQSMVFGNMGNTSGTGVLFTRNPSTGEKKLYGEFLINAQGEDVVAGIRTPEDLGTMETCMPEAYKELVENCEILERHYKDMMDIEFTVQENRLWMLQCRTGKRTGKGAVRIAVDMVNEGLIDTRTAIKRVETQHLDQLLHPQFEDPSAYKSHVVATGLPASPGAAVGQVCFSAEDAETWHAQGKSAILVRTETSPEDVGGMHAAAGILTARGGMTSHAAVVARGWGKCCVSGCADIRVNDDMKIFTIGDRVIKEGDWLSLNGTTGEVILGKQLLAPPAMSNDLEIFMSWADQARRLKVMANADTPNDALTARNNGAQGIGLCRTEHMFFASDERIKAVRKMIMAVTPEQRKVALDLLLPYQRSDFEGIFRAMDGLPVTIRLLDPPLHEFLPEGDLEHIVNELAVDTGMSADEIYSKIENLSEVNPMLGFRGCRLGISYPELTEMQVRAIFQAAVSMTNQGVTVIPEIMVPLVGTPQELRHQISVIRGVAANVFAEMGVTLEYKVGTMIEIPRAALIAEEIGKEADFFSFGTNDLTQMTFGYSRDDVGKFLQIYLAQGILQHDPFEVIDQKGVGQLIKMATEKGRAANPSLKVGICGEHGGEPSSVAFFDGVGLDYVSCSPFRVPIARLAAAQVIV
Procedure: Heterologous gene expression and purification of the recombinant PPDK were performed as described in [11]. A modified pET-16b vector (Merck, Darmstadt, GER) which contained an N-terminal histidine10 tag, followed by a TEV cleavage site and the sequence encoding for PPDK from Flaveria trinervia (EMBL X75516) was used for heterologous expression in E. coli strain BL21 (DE3). Transformed cells were grown to an OD600 of 0.6–0.8 in 2YT medium at 30°C before expression was induced by the addition of 0.1 mM isopropyl-β-D-1-thiogalactopyranoside. Cells were harvested after over night incubation at 30°C and 180 rpm. Preceding purification, cells were resuspended in lysis buffer (50 mM Tris/HCl pH 7.5, 300 mM NaCl, 10 mM imidazole, 10 mM MgSO4, 10% (w/v) glycerol, 5 mM DTT, 0.002% (w/v) phenylmethanesulfonylfluoride) and disrupted using a cell disruptor (Constant Systems). PPDK was purified using a nickel affinity chromatography column (GE Healthcare, Munich, GER). Purification (50 mM Tris/HCl pH 7.5, 300 mM NaCl, 10 mM MgSO4, 10% (w/v) glycerol, 5 mM DTT) and elution buffer (50 mM Tris/HCl pH 7.5, 300 mM NaCl, 500 mM imidazole, 10 mM MgSO4, 10% (w/v) glycerol, 5 mM DTT) were used for further purification steps. PPDK bound to the column was washed in steps of 50 mM, 150 mM and 200 mM imidazole, before final elution with 500 mM imidazole. Protein-rich fractions were pooled and a PD-10 desalting column (GE Healthcare) was used to change the elution buffer for assay buffer (100 mM Tris/HCl pH 8.0, 10 mM MgCl2, 2.5 mM KH2PO4, 6 mM glucose-6-phosphate, 5 mM NaHCO3, 0.1 mM EDTA, 5 mM DTT). The buffer-exchanged sample was eventually concentrated by ultrafiltration (30 kDa cutoff, Millipore).
Activity of purified PPDK was measured according to Salahas et al., Doyle et al. in a 96 well microtiter plate layout by a coupled spectrophotometrical assay. In this assay, the carboxylation of PEP by PEPC is linked to the oxidation of NADH by NADH-malate dehydrogenase (NADH-MDH). PEP is formed by PPDK via ATP-driven phosphorylation of pyruvate. Eventually, the consumption of one molecule NADH is equivalent to the formation of one molecule of PEP by PPDK. The assay was performed in a sample volume of 100 μL at 30°C in a M200 plate reader (Tecan, Crailsheim, GER). 0.2 μM PPDK were mixed with 0.2 mM NADH, 2.5 mM sodium pyruvate, 0.8 U bacterial PEPC (Sigma-Aldrich, Darmstadt, GER) and 2 U NADH-MDH (Sigma-Aldrich). The reaction mixture was filled up to a total volume of 100 μL per sample with assay buffer (100 mM Tris/HCl pH 8.0, 10 mM MgCl2, 2.5 mM KH2PO4, 6 mM glucose-6-phosphate, 5 mM NaHCO3, 0.1 mM EDTA, 5 mM DTT). PPDK was pre-incubated for 20 min at 30°C to ensure full activity. Inhibitors were dissolved in water free dimethyl sulfoxide (DMSO) with a final concentration of 10 mM and were added prior to adjusting the final sample volume. To account for possible effects of DMSO on PPDK activity, the solvent was added to the controls in an amount equal to the largest DMSO concentration used in the experiments. Incubation time of the final sample mixture including inhibitors and PPDK was 15 min. Initial comparative screening was perfomed using 100 μM of each compound. The absorbance at 340 nm was recorded for 30 s with an interval of 300 ms. […] A four-parameter log-logistic dose-response curve was then globally fitted to the individual replicates using the R software collection and the R package “drc” [28] as proposed by assessment of Akaike’s information criterion (AIC). PPDK was incubated for 10 min with the inhibitors before each measurement. To exclude PEPC or NADH-MDH inhibition by the selected compounds, the initial screening assay was repeated in triplicates for those compounds without adding PPDK and starting the reaction by injection of PEP instead of ATP.

[2] = molecular target: receptor tyrosine kinases; parameters: method as in PMID 16648571; settings: ATP-competitive; cited from earlier work
[3] = system: Zea mays leaf slices; experiment: Inhibition of oxygen evolution during C4 photosynthesis, leaf slices, Clark-type O2 electrode; format: cell-based; settings: for inhibition at 20 µg/mL: 20 μg mL^−1; for inhibition at 40 µg/mL: 40 μg mL^−1
Procedure: Oxygen (O2) evolution, driven by the C4 acid cycle, was measured according to refs [21, 22, 31]. The reaction chamber of a Clark-type O2 electrode (Hansatech, Norfolk, UK) was filled with 1 mL of degassed buffer containing 0.33 M sorbitol, 2.5 mM NaH2PO4, 2.5 mM MgCl2, 25 mM HEPES/KOH pH 7.5, 50 μM MnCl2 and 2.5 mM dithiothreitol (DTT). An area sized approx. 1 cm^2 was cut from a mature leaf of the C4 model plant Zea mays and processed into slices of ∼ 1 mm width. The leaf slices were added to the electrode chamber and the recording of O2 evolution was started while keeping the chamber in the dark. The O2 evolution rate recorded in this period was later substracted from the subsequently recorded rates to account for the electrode drift. Once the system had stabilized, the chamber was illuminated using a Schott KL 1500 electronic light source. Again, the system was given time to stabilize before the C4-driven O2 evolution was initiated by the addition of first NaHCO3 and then pyruvate in final concentrations of 4 mM each. […] All measurements were done in triplicates.
Directly following the measurement, leaf slices were removed from the chamber and transferred to 1 mL of 80% acetone (v/v) for chlorophyll extraction. The samples were kept at 4°C in the dark for 48 h.

[4] = system: Zea mays PPDK; parameters: method as in earlier work; settings: PPDK from leaf extracts; ref 21 (Haines et al.); cited from earlier work

SMILES	IC50 [1]	Residual PPDK activity relative to DMSO-treated controls [1]	inhibition at 20 µg/mL [3]	inhibition at 40 µg/mL [3]	further results
Cc1ccc(F)c(NC(=O)Nc2ccc(-c3cccc4[nH]nc(N)c34)cc2)c1 [ABT-869]	11.2 ± 0.24 µM	below 30%	–	–	IC50 [2]: 0.004 µM
O=C1NC(=O)C(c2c[nH]c3ccccc23)=C1c1c[nH]c2ccccc12 [BIM IV, bisindolylmaleimide IV]	0.76 ± 0.13 µM	–	20%	36%	–
CN1C(=O)C(c2c[nH]c3ccccc23)=C(c2c[nH]c3ccccc23)C1=O [bisindolylmaleimide V]	–	15%	–	–	–
C=C1CCC[C@H]2[C@](C)(CC3=C(O)C(=O)C=C(OC)C3=O)[C@@H](C)CC[C@]12C [ilimaquinone]	740 ± 566 µM	–	–	–	IC50 [4]: 292 ± 23 µM
COc1ccc2c(c1)c(C1=C(c3c[nH]c4ccccc34)C(=O)NC1=O)cn2CCCN(C)C [Go6983]	1.5 ± 0.6 µM	–	19%	29%	–
CN(C)CC1CCn2c(c(C3=C(c4cn(C)c5ccccc45)C(=O)NC3=O)c3ccccc32)C1 (stereo not shown) [BIM XI, bisindolylmaleimide XI]	–	–	–	–	Effect on PPDK activity ([1]; initial screening): did not show any effect; also recorded: no effect
